{"source": "patent US20170355760A1", "about": "“METHODS FOR MODULATING THE GLYCOSYLATION PROFILE OF RECOMBINANT PROTEINS USING SUGARS” (AbbVie Inc., priority 2014, published 2017)", "type_in_all_cases": "cell-based, Chinese Hamster", "key": {"CHO cell line 1 [1]": {"test_system": "CHO cell line 1", "experiment": "Viable cell density and cell viability of shaker flask cultures (trypan blue exclusion, Cedex)", "conditions": "for peak VCD compared to control: 50 mM supplementation; for cell viability profile: 1-50 mM supplementation; for cell growth compared to the unsupplemented control: sugar 1, 10, 25, 50 mM in basal media, shaker flask", "protocol": "(§1) A recombinant Chinese Hamster Ovary (CHO) cell line (Cell Line 1) expressing a humanized monoclonal antibody (Antibody 1) was evaluated in shaker flask cultures. The cell line was of CHO DUX-B11 origin based on a dhfr (dihydrofolate reductase) expression system, and cultured in a chemically defined basal and chemically-defined feed media. Each of the respective cultures were supplemented with selected monosaccharides and oligosaccharides to evaluate for their potential impact on the resulting N-glycan oligosaccharide profile. All sugars were purchased from Sigma-Aldrich (St. Louis, Mo.), and dissolved at the concentrations referenced below in the cell culture media. Unless specified otherwise, all sugars evaluated were in their D-form. In preparation of the cultures, the cell lines were expanded through seed train inoculums to generate enough cells for inoculation.\nViable cell density (VCD) and cell viability values were measured through trypan blue exclusion via Cedex automated cell counters (Roche Applied Science, Indianapolis, Ind.). Initial viable cell density and viability in the cultures were targeted towards the same value. Immediately after inoculation, only a handful of each of the shake flasks were sampled for VCD and viability, and the results were averaged. All Day 0 values amongst these flasks were thus reported to be at this average. The cultures were harvested on Process Days 9-10, or when cell viability dropped below 50%, whichever occurred first."}, "CHO cell line 1 [2]": {"test_system": "CHO cell line 1", "experiment": "Harvest antibody titer (Poros A Protein A affinity HPLC)", "conditions": "for harvest titer compared to unsupplemented control: 1-50 mM supplementation", "protocol": "as §1\nAntibody titers were measured from crude cell culture harvests on a Poros A™ (Life Technologies, Carlsbad, Calif.) affinity column using an Agilent (Santa Clara, Calif.) 1200 Series HPLC, or equivalent, operating with a low pH, step elution gradient with detection at 280 nm. Absolute concentrations were assigned with respect to reference standard calibration curves."}, "[3]": {"test_system": "Cell Line 1 expressing a humanized monoclonal antibody (Antibody 1)", "experiment": "N-glycan oligosaccharide profiling of Protein A purified antibody (reduced heavy chain, RP-HPLC/Q-TOF MS)", "conditions": "for redirecting the N-glycan glycoform profile: 250 mL shaker flask cultures, defined supplementation range", "protocol": "as §1\nPurified antibodies subjected to additional analytical characterization were purified using MabSelect™ Protein A (GE Healthcare, Piscataway, N.J.) using a low pH, step elution gradient, followed by neutralization, and subsequently buffer exchanged when necessary using Amicon centrifugal filters (EMD Millipore, Billerica, Mass.) according to the manufacturer's recommended procedure.\nThe heavy chain of adalimumab was analyzed using an HPLC (Agilent 1260, Santa Clara, Calif.) with a reversed phase column (Vydac, C4, 1×150 mm, 5μ particle size) coupled to a Q-TOF mass spectrometer (Agilent, 6510). Protein A purified samples from cell culture harvests were first reduced using DTT at 37° C. for 30 minutes. The samples were then loaded using 95% mobile phase A (0.08% formic acid and 0.02% TFA in water) and 5% mobile phase B (0.08% formic acid and 0.02% TFA in acetonitrile), and then eluted using a gradient of increasing levels of mobile phase B. The flow rate was 50 μL/min and the column temperature was set to 60° C. The mass spectrometer was operated in positive ion mode with an ion spray voltage of 4500 volts and a source temperature of 350° C. Resolved peaks centered on the known masses of different N-glycans was subsequently used to identify the different types of N-glycans, and the relative peak heights were used to quantitate their respective levels."}, "[4]": {"conditions": "1-50 mM vs unsupplemented control"}, "[5]": {"conditions": "the higher concentrations evaluated"}, "[6]": {"conditions": "each of the concentrations evaluated (1-50 mM)"}, "[7]": {"conditions": "across all supplemented concentrations (1-50 mM)"}}, "data": [{"smiles": "OC[C@H]1O[C@@](CO)(O[C@H]2O[C@H](CO)[C@@H](O)[C@H](O)[C@H]2O)[C@@H](O[C@H]2O[C@H](CO)[C@@H](O)[C@H](O)[C@H]2O)[C@@H]1O", "note": "[melezitose]", "values": [{"measurement": "peak VCD compared to control", "setting": "CHO cell line 1 [1]", "value": "drop in peak VCD"}, {"measurement": "cell viability profile", "setting": "CHO cell line 1 [1]", "value": "no adverse impact"}, {"measurement": "cell growth compared to the unsupplemented control", "setting": "CHO cell line 1 [1]", "value": "only the 50 mM condition had an adverse impact on cell growth"}, {"measurement": "harvest titer ratio", "setting": "CHO cell line 1 [2]; 10 mM (lowest result observed)", "value": 0.82}, {"measurement": "harvest titer compared to unsupplemented control", "setting": "CHO cell line 1 [2]", "value": "nominally reduce the harvest titer"}, {"measurement": "increase in G1F", "setting": "[3]; 1 mM", "value": 1, "unit": "%"}, {"measurement": "increase in G1F", "setting": "[3]; 10 mM", "value": 9, "unit": "%"}, {"measurement": "increase in G1F", "setting": "[3]; 25 mM", "value": 20, "unit": "%"}, {"measurement": "increase in G1F", "setting": "[3]; 50 mM", "value": 28, "unit": "%"}, {"measurement": "G0 type glycans", "setting": "[3]; [4]", "value": "almost equal drop in relative value"}, {"measurement": "G2 N-glycan change", "setting": "[3]; [4]", "value": "mirrored these results, albeit at a much lower overall percent change"}, {"measurement": "N-glycan oligosaccharide profile change upon supplementation", "setting": "[3]; [4]", "value": "largest % impact on the protein glycosylation profile"}, {"measurement": "redirecting the N-glycan glycoform profile", "setting": "[3]", "value": "toward the complex, galactosylated type"}, {"measurement": "Man5 levels", "setting": "[3]; all tested concentrations", "value": "Reduced levels"}]}, {"smiles": "OC[C@H]1O[C@H](OC[C@H]2OC(O)(CO)[C@@H](O)[C@@H]2O)[C@H](O)[C@@H](O)[C@@H]1O", "note": "(stereo partly drawn) [palatinose]", "values": [{"measurement": "cell viability profile", "setting": "CHO cell line 1 [1]", "value": "reasonably consistent with each other"}, {"measurement": "cell growth compared to the unsupplemented control", "setting": "CHO cell line 1 [1]", "value": "only the lowest concentration (1 mM) supported a cell growth profile that closely approximated that of the unsupplemented control"}, {"measurement": "peak VCD compared to the unsupplemented control", "setting": "CHO cell line 1 [1]; [5]", "value": "lower peak viable cell densities"}, {"measurement": "harvest titer compared to unsupplemented control", "setting": "CHO cell line 1 [2]", "value": "slightly less antibody product"}, {"measurement": "G0F N-glycan levels", "setting": "[3]; [4]", "value": "significant decrease"}, {"measurement": "N-glycan oligosaccharide profile change upon supplementation", "setting": "[3]; [4]", "value": "increase Man5, G0F-GlcNAc, G1F, and G2F N-glycans in a palatinose concentration-dependent manner"}, {"measurement": "redirecting the N-glycan glycoform profile", "setting": "[3]", "value": "toward the high mannose type"}]}, {"smiles": "O=C(CO)[C@@H](O[C@H]1O[C@H](CO)[C@@H](O)[C@H](O)[C@H]1O)[C@H](O)[C@H](O)CO", "note": "[turanose]", "values": [{"measurement": "peak VCD compared to control", "setting": "CHO cell line 1 [1]", "value": "small nominal drop"}, {"measurement": "cell viability profile", "setting": "CHO cell line 1 [1]", "value": "did not show a very significant adverse impact"}, {"measurement": "cell growth compared to the unsupplemented control", "setting": "CHO cell line 1 [1]", "value": "did not show a very significant adverse impact towards cell growth"}, {"measurement": "drop in harvest titer", "setting": "CHO cell line 1 [2]; 50 mM (largest drop)", "value": 10, "unit": "%"}, {"measurement": "harvest titer compared to unsupplemented control", "setting": "CHO cell line 1 [2]", "value": "small drop in harvest titer"}, {"measurement": "increase in G1F", "setting": "[3]; 1 mM", "value": 0.2, "unit": "%"}, {"measurement": "increase in G2F", "setting": "[3]; 10 mM", "value": 3, "unit": "%"}, {"measurement": "increase in G2F", "setting": "[3]; 25 mM", "value": 7, "unit": "%"}, {"measurement": "increase in G1F", "setting": "[3]; 50 mM", "value": 14, "unit": "%"}, {"measurement": "N-glycan oligosaccharide profile change upon supplementation", "setting": "[3]; [4]", "value": "increase of G1F and G2F species, which came at the expense of the G0F and G0F-GlcNAc species"}, {"measurement": "redirecting the N-glycan glycoform profile", "setting": "[3]", "value": "toward the complex, galactosylated type"}]}, {"smiles": "OC[C@H]1O[C@H](O[C@H]2O[C@H](CO)[C@@H](O)[C@H](O)[C@H]2O)[C@H](O)[C@@H](O)[C@@H]1O", "note": "[trehalose]", "values": [{"measurement": "cell viability profile", "setting": "CHO cell line 1 [1]", "value": "not affected"}, {"measurement": "peak VCD compared to the unsupplemented control", "setting": "CHO cell line 1 [1]; [6]", "value": "lower peak VCD"}, {"measurement": "harvest titer compared to unsupplemented control", "setting": "CHO cell line 1 [2]", "value": "slightly lower values"}, {"measurement": "harvest titer ratio", "setting": "CHO cell line 1 [2]; [7]", "value": "> 0.85"}, {"measurement": "G0F N-glycan levels", "setting": "[3]; [4]", "value": "significant decrease"}, {"measurement": "N-glycan oligosaccharide profile change upon supplementation", "setting": "[3]; [4]", "value": "more Man5 and G0F-GlcNAc levels"}, {"measurement": "redirecting the N-glycan glycoform profile", "setting": "[3]", "value": "toward the high mannose type"}]}, {"smiles": "O=C(CO)[C@H](O)[C@H](O)[C@H](O)CO", "note": "[psicose]", "values": [{"measurement": "cell viability profile", "setting": "CHO cell line 1 [1]", "value": "no significant changes"}, {"measurement": "peak VCD compared to the unsupplemented control", "setting": "CHO cell line 1 [1]; [6]", "value": "lower peak VCD"}, {"measurement": "harvest titer compared to unsupplemented control", "setting": "CHO cell line 1 [2]", "value": "slightly lower compared to the control"}, {"measurement": "harvest titer ratio", "setting": "CHO cell line 1 [2]; [7]", "value": "> 0.88"}, {"measurement": "G0F N-glycan levels", "setting": "[3]; [4]", "value": "dropped in an almost equal fashion"}, {"measurement": "N-glycan oligosaccharide profile change upon supplementation", "setting": "[3]; [4]", "value": "increase Man5, G0F-GlcNAc, and G1F species in a psicose concentration-dependent manner"}, {"measurement": "redirecting the N-glycan glycoform profile", "setting": "[3]", "value": "toward the high mannose type"}]}, {"smiles": "OC[C@H]1O[C@@H](O[C@H]2[C@H](O)[C@@H](O)C(O)O[C@@H]2CO)[C@H](O)[C@@H](O)[C@H]1O", "note": "(stereo partly drawn) [lactose]", "values": [{"measurement": "peak VCD compared to control", "setting": "CHO cell line 1 [1]", "value": "noticeably lower than the control"}, {"measurement": "cell viability profile", "setting": "CHO cell line 1 [1]", "value": "no adverse impact"}, {"measurement": "cell growth compared to the unsupplemented control", "setting": "CHO cell line 1 [1]", "value": "no adverse impact towards cell growth performance"}, {"measurement": "relative harvest titer", "setting": "CHO cell line 1 [2]; 1 mM (lowest across tested concentrations)", "value": 0.87}, {"measurement": "harvest titer compared to unsupplemented control", "setting": "CHO cell line 1 [2]", "value": "small decrease in harvest titers"}, {"measurement": "G0F N-glycan levels", "setting": "[3]; [4]", "value": "almost equal drop"}, {"measurement": "redirecting the N-glycan glycoform profile", "setting": "[3]", "value": "toward the complex, galactosylated type"}, {"measurement": "increase in G1F species", "setting": "[3]; at most, across 1-50 mM", "value": "≤ 4", "unit": "%"}, {"measurement": "increase in G2F species", "setting": "[3]; at most, across 1-50 mM", "value": "≤ 2", "unit": "%"}]}, {"smiles": "OC[C@H]1O[C@H](OC[C@H]2O[C@H](O[C@]3(CO)O[C@H](CO)[C@@H](O)[C@@H]3O)[C@H](O)[C@@H](O)[C@@H]2O)[C@H](O)[C@@H](O)[C@H]1O", "note": "[raffinose]", "values": [{"measurement": "cell viability profile", "setting": "CHO cell line 1 [1]", "value": "closely approximated each other"}, {"measurement": "cell growth compared to the unsupplemented control", "setting": "CHO cell line 1 [1]", "value": "comparable to the unsupplemented control up to a raffinose concentration of 10 mM"}, {"measurement": "peak VCD compared to the unsupplemented control", "setting": "CHO cell line 1 [1]; [5]", "value": "lower than that of the unsupplemented control"}, {"measurement": "harvest titer compared to unsupplemented control", "setting": "CHO cell line 1 [2]", "value": "closely approximated each other"}, {"measurement": "redirecting the N-glycan glycoform profile", "setting": "[3]", "value": "toward the high mannose type"}, {"measurement": "increase in Man5, G0F-GlcNAc, and G1F compared to the unsupplemented control", "setting": "[3]; concentration-dependent, 1-50 mM", "value": "> 2", "unit": "%"}]}, {"smiles": "OC[C@H]1O[C@@H](O[C@@H]2[C@@H](CO)OC(O)(CO)[C@H]2O)[C@H](O)[C@@H](O)[C@H]1O", "note": "(mixture of isomers) [lactulose]", "values": [{"measurement": "peak VCD compared to control", "setting": "CHO cell line 1 [1]", "value": "drop in VCD"}, {"measurement": "cell viability profile", "setting": "CHO cell line 1 [1]", "value": "no adverse impact"}, {"measurement": "cell growth compared to the unsupplemented control", "setting": "CHO cell line 1 [1]", "value": "only the 50 mM level of this sugar had a slightly adverse impact to cell growth performance"}, {"measurement": "harvest titer ratio", "setting": "CHO cell line 1 [2]; 50 mM", "value": 0.89}, {"measurement": "harvest titer compared to unsupplemented control", "setting": "CHO cell line 1 [2]", "value": "only nominally impacted"}, {"measurement": "G0F N-glycan levels", "setting": "[3]; [4]", "value": "approximately equal drop"}, {"measurement": "N-glycan oligosaccharide profile change upon supplementation", "setting": "[3]; [4]", "value": "lactulose dependent increase in Man5, G0F-GlcNAc, and G1F N-glycans"}, {"measurement": "redirecting the N-glycan glycoform profile", "setting": "[3]", "value": "toward the high mannose type"}]}]}
